In patent US10023593B2, “ALK kinase inhibitor, and preparation method and uses thereof” (BEIJING PEARL BIOTECHNOLOGY LIMITED LIABILITY COMPANY, priority 2014, dated 2018):

Each compound was assayed against cytochrome P450 2C9 (Homo sapiens, UniProt P11712) (assay: Inhibitory activity on cytochrome P450 2C9). Details: no significant inhibition.
Assay type: in vitro ADME

cytochrome P450 2C9, sequence (P11712 whole entry): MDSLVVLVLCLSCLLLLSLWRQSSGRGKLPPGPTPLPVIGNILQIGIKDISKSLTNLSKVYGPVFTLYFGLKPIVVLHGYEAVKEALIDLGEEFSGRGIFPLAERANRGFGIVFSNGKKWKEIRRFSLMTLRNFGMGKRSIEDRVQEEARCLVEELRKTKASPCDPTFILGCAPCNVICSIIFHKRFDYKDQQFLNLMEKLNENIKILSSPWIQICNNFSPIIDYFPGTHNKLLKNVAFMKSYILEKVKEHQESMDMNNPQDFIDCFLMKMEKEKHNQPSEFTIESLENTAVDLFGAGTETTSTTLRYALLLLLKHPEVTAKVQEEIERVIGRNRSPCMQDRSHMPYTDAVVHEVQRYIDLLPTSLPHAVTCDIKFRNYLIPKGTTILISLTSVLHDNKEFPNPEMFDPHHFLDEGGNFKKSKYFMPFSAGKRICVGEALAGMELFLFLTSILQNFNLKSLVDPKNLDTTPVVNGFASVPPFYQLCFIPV

Row | IC50 | Compound
1 | > 10 µM | Cc1cc(Nc2ncc(Cl)c(Nc3cn(C)nc3S(=O)(=O)C(C)C)n2)c(OC2CC2)cc1C1CCC(NS(C)(=O)=O)CC1 (stereo not shown) [Final product 205, N-(4-(4-(5-chloro-4-(3-(isopropylsulfonyl)-1-methyl-1H-pyrazol-4-amine)pyrimidin-2-amine)-5-cyclopropoxy-2-methylphenyl)cyclohexyl)methanesulfonamide]
2 | > 10 µM | COCC1CC(c2cc(OC3CC3)c(Nc3ncc(Cl)c(Nc4cn(C)nc4S(=O)(=O)C(C)C)n3)cc2C)CCN1C (stereo not shown) [Final product 77]
3 | > 10 µM | Cc1cc(Nc2ncc(Cl)c(Nc3cn(C)nc3S(=O)(=O)CC(C)C)n2)c(OC2CC2)cc1C1CCN(C)CC1 [Final product 57]
4 | > 10 µM | COCCN1CCC(c2cc(OC3CC3)c(Nc3ncc(Cl)c(Nc4cn(C)nc4S(=O)(=O)C(C)C)n3)cc2C)CC1 [Final product 82]
